Test results from USRE42890E1, “Furazanobenzimidazoles” (Basilea Pharmaceutica AG, priority 2003, dated 2011).

Columns and labels:
[1] = test system: MRC5; test: MTS proliferation assay, MRC5; type: cell-based; conditions: MRC5, 72 h incubation; read-out: MTS proliferation assay IC 50 MRC5
Procedure, shortened: (§1)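 Read-out: MTS absorbance at 492 nm after 3 h reagent incubation. Before that, cells grew 72 h at 37° C/7.5% CO2 with test compounds at final concentrations of 10 μM, 3 μM, 1 μM and 0.3 μM, added 24 h post-seeding.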

[2] = test system: HT1080; test: MTS proliferation assay, HT1080; type: cell-based, human; conditions: HT1080, 72 h incubation; read-out: MTS proliferation assay IC 50 HT1080
Procedure, shortened: (§2)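 Absorbance at 492 nm after 3 h with MTS reagent gave the proliferation read-out. Before that, cells in RPMI-1640 complete medium (5% or 10% FCS) were treated 72 h with compound at four final concentrations, 0.3 to 10 μM.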

[3] = test system: Jily; test: MTS proliferation assay, Jily; type: cell-based; conditions: 72 h incubation, read-out: MTS proliferation assay IC 50 Jily
Procedure, shortened: as §1

[4] = test system: Jurkat; test: MTS proliferation assay, Jurkat; type: cell-based, human; conditions: 72 h incubation, read-out: MTS proliferation assay IC 50 Jurkat
Procedure, shortened: as §2

[5] = test system: HeLa; test: MTS proliferation assay, HeLa; type: cell-based, human; conditions: 72 h incubation, read-out: MTS proliferation assay IC 50 HeLa
Procedure, shortened: as §2

[6] = test system: adherent cells or suspension cells; test: Hoechst 33342 nuclear staining (fraction of apoptotic nuclei); type: cell-based; design: key: 0 relating to no activity; 1 relating to weak activity comprising less than 70% of the cells; score 2 relating to strong activity comprising more than 70% of the cells

| SMILES | IC50 [1] [nM] | IC50 [2] [nM] | IC50 [3] [nM] | IC50 [4] [nM] | IC50 [5] [nM] | Hoechst 33342 nuclear staining score ([6]; HeLa, conc 0.01 μm) | Hoechst 33342 nuclear staining score ([6]; HeLa, conc 0.1 μm) | Hoechst 33342 nuclear staining score ([6]; HeLa, conc 1 μm) | Hoechst 33342 nuclear staining score ([6]; Jily, conc 0.01 μm) | Hoechst 33342 nuclear staining score ([6]; Jily, conc 0.1 μm) | Hoechst 33342 nuclear staining score ([6]; Jily, conc 1 μm) | Hoechst 33342 nuclear staining score ([6]; Jurkat, conc 0.01 μm) | Hoechst 33342 nuclear staining score ([6]; Jurkat, conc 0.1 μm) | Hoechst 33342 nuclear staining score ([6]; Jurkat, conc 1 μm) | Hoechst 33342 nuclear staining score ([6]; MRC5, conc 0.01 μm) | Hoechst 33342 nuclear staining score ([6]; MRC5, conc 0.1 μm) | Hoechst 33342 nuclear staining score ([6]; MRC5, conc 1 μm) | Hoechst 33342 nuclear staining score ([6]; PBLs, conc 0.01 μm) | Hoechst 33342 nuclear staining score ([6]; PBLs, conc 0.1 μm) | Hoechst 33342 nuclear staining score ([6]; PBLs, conc 1 μm) | also measured |
| --- | --- | --- | --- | --- | --- | --- | --- | --- | --- | --- | --- | --- | --- | --- | --- | --- | --- | --- | --- | --- | --- |
| Nc1nonc1-c1nc2ccccc2n1CC(=O)c1ccc(C(F)(F)F)cc1 [Example 43] | 100 to 1000 | 100 to 1000 | 100 to 1000 | 100 to 1000 | 100 to 1000 | 0 | 0 | 1 (1 relating to weak activity comprising less than 70% of the cells) | 0 | 0 | 1 (1 relating to weak activity comprising less than 70% of the cells) | 0 | 0 | 2 (score 2 relating to strong activity comprising more than 70% of the cells) | 0 | 0 | 1 (1 relating to weak activity comprising less than 70% of the cells) | 0 | 0 | 0 | – |
| COc1ccc(C(=O)Cn2c(-c3nonc3N)nc3ccccc32)cc1[N+](=O)[O-] [Example 68] | 100 to 1000 | 100 to 1000 | 10 to 100 | 10 to 100 | 100 to 1000 | 0 | 0 | 2 (score 2 relating to strong activity comprising more than 70% of the cells) | 0 | 1 (1 relating to weak activity comprising less than 70% of the cells) | 1 (1 relating to weak activity comprising less than 70% of the cells) | 0 | 2 (score 2 relating to strong activity comprising more than 70% of the cells) | 2 (score 2 relating to strong activity comprising more than 70% of the cells) | 0 | 0 | 1 (1 relating to weak activity comprising less than 70% of the cells) | 0 | 0 | 0 | Hoechst 33342 nuclear staining score ([6]; H460, conc 0.01 μm): 0; Hoechst 33342 nuclear staining score ([6]; H460, conc 0.1 μm): 0; Hoechst 33342 nuclear staining score ([6]; H460, conc 1 μm): 2 (score 2 relating to strong activity comprising more than 70% of the cells) |
| Nc1nonc1-c1nc2ccccc2n1CC(=O)c1cccc(Cl)c1 [Example 35] | 100 to 1000 | 100 to 1000 | 10 to 100 | 10 to 100 | 10 to 100 | 0 | 0 | 2 (score 2 relating to strong activity comprising more than 70% of the cells) | 0 | 1 (1 relating to weak activity comprising less than 70% of the cells) | 2 (score 2 relating to strong activity comprising more than 70% of the cells) | 0 | 2 (score 2 relating to strong activity comprising more than 70% of the cells) | 2 (score 2 relating to strong activity comprising more than 70% of the cells) | 0 | 2 (score 2 relating to strong activity comprising more than 70% of the cells) | 2 (score 2 relating to strong activity comprising more than 70% of the cells) | 0 | 0 | 0 | Hoechst 33342 nuclear staining score ([6]; H460, conc 0.01 μm): 0; Hoechst 33342 nuclear staining score ([6]; H460, conc 0.1 μm): 0; Hoechst 33342 nuclear staining score ([6]; H460, conc 1 μm): 2 (score 2 relating to strong activity comprising more than 70% of the cells) |
| Nc1nonc1-c1nc2ccccc2n1CC(=O)c1ccccn1 [Example 59] | 100 to 1000 | 100 to 1000 | 100 to 1000 | 100 to 1000 | 100 to 1000 | 0 | 0 | 2 (score 2 relating to strong activity comprising more than 70% of the cells) | 0 | 0 | 2 (score 2 relating to strong activity comprising more than 70% of the cells) | 0 | 0 | 2 (score 2 relating to strong activity comprising more than 70% of the cells) | 0 | 0 | 2 (score 2 relating to strong activity comprising more than 70% of the cells) | 0 | 0 | 0 | Hoechst 33342 nuclear staining score ([6]; H460, conc 0.01 μm): 0; Hoechst 33342 nuclear staining score ([6]; H460, conc 0.1 μm): 0; Hoechst 33342 nuclear staining score ([6]; H460, conc 1 μm): 2 (score 2 relating to strong activity comprising more than 70% of the cells) |
| N#CCCNc1nonc1-c1nc2ccccc2n1CC(=O)c1ccc([N+](=O)[O-])cc1 [Example 57] | 100 to 1000 | 100 to 1000 | 10 to 100 | 10 to 100 | 100 to 1000 | 0 | 0 | 2 (score 2 relating to strong activity comprising more than 70% of the cells) | 0 | 0 | 2 (score 2 relating to strong activity comprising more than 70% of the cells) | 0 | 0 | 2 (score 2 relating to strong activity comprising more than 70% of the cells) | 0 | 0 | 2 (score 2 relating to strong activity comprising more than 70% of the cells) | 0 | 0 | 0 | Hoechst 33342 nuclear staining score ([6]; H460, conc 0.01 μm): 0; Hoechst 33342 nuclear staining score ([6]; H460, conc 0.1 μm): 0; Hoechst 33342 nuclear staining score ([6]; H460, conc 1 μm): 0 |
| Nc1nonc1-c1nc2ccccc2n1CC1CC1 [B, reference compound] | > 1000 | > 1000 | > 1000 | > 1000 | > 1000 | – | – | – | – | – | – | – | – | – | – | – | – | – | – | – | Hoechst 33342 nuclear staining score ([6]; H460, conc 3 μm): 0; Hoechst 33342 nuclear staining score ([6]; H460, conc 10 μm): 0; Hoechst 33342 nuclear staining score ([6]; H460, conc 30 μm): 0; Hoechst 33342 nuclear staining score ([6]; HeLa, conc 3 μm): 0; Hoechst 33342 nuclear staining score ([6]; HeLa, conc 10 μm): 0; Hoechst 33342 nuclear staining score ([6]; HeLa, conc 30 μm): 0; Hoechst 33342 nuclear staining score ([6]; Jily, conc 3 μm): 0; Hoechst 33342 nuclear staining score ([6]; Jily, conc 10 μm): 0; Hoechst 33342 nuclear staining score ([6]; Jily, conc 30 μm): 0; Hoechst 33342 nuclear staining score ([6]; Jurkat, conc 3 μm): 0; Hoechst 33342 nuclear staining score ([6]; Jurkat, conc 10 μm): 0; Hoechst 33342 nuclear staining score ([6]; Jurkat, conc 30 μm): 0; Hoechst 33342 nuclear staining score ([6]; MRC5, conc 3 μm): 0; Hoechst 33342 nuclear staining score ([6]; MRC5, conc 10 μm): 0; Hoechst 33342 nuclear staining score ([6]; MRC5, conc 30 μm): 0; Hoechst 33342 nuclear staining score ([6]; PBLs, conc 3 μm): 0; Hoechst 33342 nuclear staining score ([6]; PBLs, conc 10 μm): 0; Hoechst 33342 nuclear staining score ([6]; PBLs, conc 30 μm): 0 |
| Cl.Nc1ccc(C(=O)Cn2c(-c3nonc3N)nc3ccccc32)cc1 [Example 51] | 10 to 100 | 10 to 100 | 10 to 100 | 10 to 100 | 10 to 100 | 0 | 2 (score 2 relating to strong activity comprising more than 70% of the cells) | 2 (score 2 relating to strong activity comprising more than 70% of the cells) | 0 | 2 (score 2 relating to strong activity comprising more than 70% of the cells) | 2 (score 2 relating to strong activity comprising more than 70% of the cells) | 1 (1 relating to weak activity comprising less than 70% of the cells) | 2 (score 2 relating to strong activity comprising more than 70% of the cells) | 2 (score 2 relating to strong activity comprising more than 70% of the cells) | 0 | 2 (score 2 relating to strong activity comprising more than 70% of the cells) | 2 (score 2 relating to strong activity comprising more than 70% of the cells) | 0 | 0 | 0 | Hoechst 33342 nuclear staining score ([6]; H460, conc 0.01 μm): 0; Hoechst 33342 nuclear staining score ([6]; H460, conc 0.1 μm): 2 (score 2 relating to strong activity comprising more than 70% of the cells); Hoechst 33342 nuclear staining score ([6]; H460, conc 1 μm): 2 (score 2 relating to strong activity comprising more than 70% of the cells) |
